# Literature values in patent US7413690B1, “Process and apparatus for producing spherical pellets using molten solid matrices” (The University of Mississippi, priority 2003, dated 2008).
row,Compound,water solubility (in words)
1,C[C@@H]1C[C@H]2[C@@H]3CCC4=CC(=O)C=C[C@]4(C)[C@@]3(F)[C@@H](O)C[C@]2(C)[C@@]1(O)C(=O)CO [Dexamethasone],water insoluble
2,Cn1c(=O)c2[nH]cnc2n(C)c1=O [theophylline],water soluble
